Data taken from US10828300B2, “Substituted 2,4-diaminopyrimidines as kinase inhibitors” (Celgene CAR LLC, priority 2008, dated 2020).
Entries after “also recorded” stand apart in the source; their conditions may differ.

These compounds were tested against TEC kinase (Homo sapiens (Human), UniProt P42680) (assay: Mass spectrometry for TEC kinase (tryptic digest)). Conditions: 3 hrs at 10× excess, peptide GCLLNFLR.
Type: binding, Homo sapien
Protocol: Mass Spectrometry for TEC Kinase (Compound I-2)
(§1) TEC kinase (45 pmols; Invitrogen) was incubated with (I-2) (450 pmols) for 3 hrs at 10× excess prior to tryptic digestion. Iodoacetamide was used as the alkylating agent after compound incubation. […] For tryptic digests a 5 ul aliquot (7.5 pmols) was diluted with 15 ul of 0.1% TFA prior to micro C18 Zip Tipping directly onto the MALDI target using alpha cyano-4-hydroxy cinnamic acid as the matrix (5 mg/ml in 0.1% TFA:Acetonitrile 50:50).
(§2) For tryptic digests the instrument was set in Reflectron mode with a pulsed extraction setting of 2200. Calibration was done using the Laser Biolabs Pep Mix standard ([…], 1296.69, 1672.92, 2093.09, 2465.20). For CID/PSD analysis the peptide was selected using cursors to set ion gate timing and fragmentation occurred at a laser power about 20% higher and He was used as the collision gas for CID. Calibration for fragments was done using the P14R fragmentation calibration for the Curved field Reflectron.
Mass Spectrometry for TEC Kinase (Compound I-4)
as §1, with “(I-4)” for “(I-2)”
as §2, with “1800.” for “2200.”
Mass Spectrometry for TEC Kinase (Compound I-7) […]

TEC kinase, sequence (P42680 whole entry): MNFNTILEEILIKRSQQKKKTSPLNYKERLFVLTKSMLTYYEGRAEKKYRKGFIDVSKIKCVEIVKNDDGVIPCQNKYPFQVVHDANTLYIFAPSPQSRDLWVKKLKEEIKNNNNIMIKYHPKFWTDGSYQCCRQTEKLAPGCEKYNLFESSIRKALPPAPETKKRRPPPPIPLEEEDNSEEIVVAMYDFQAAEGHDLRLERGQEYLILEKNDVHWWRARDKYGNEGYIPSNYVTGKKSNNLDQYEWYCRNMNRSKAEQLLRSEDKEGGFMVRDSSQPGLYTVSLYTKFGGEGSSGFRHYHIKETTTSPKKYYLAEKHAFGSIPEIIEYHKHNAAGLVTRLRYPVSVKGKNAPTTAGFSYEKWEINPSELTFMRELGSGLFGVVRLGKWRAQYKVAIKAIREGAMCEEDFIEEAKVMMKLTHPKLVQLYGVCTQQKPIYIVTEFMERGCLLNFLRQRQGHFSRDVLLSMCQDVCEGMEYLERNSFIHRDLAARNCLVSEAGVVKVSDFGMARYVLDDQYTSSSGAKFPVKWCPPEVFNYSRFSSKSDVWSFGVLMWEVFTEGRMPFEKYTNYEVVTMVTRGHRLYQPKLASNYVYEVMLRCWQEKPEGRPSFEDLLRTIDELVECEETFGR

Compound | covalent modification of TEC kinase by mass spectrometry
C=CC(=O)Nc1cccc(Nc2ncc(C)c(Nc3cccc(C)c3)n2)c1 [Compound I-2, N-(3-(5-methyl-4-(m-tolylamino)pyrimidin-2-ylamino)phenyl) acrylamide] | covalent modification of TEC kinase at Cys449; also recorded: reaction was complete

What follows are compounds tested against T1, BTK (Homo sapiens (Human), UniProt Q06187) (assay: Mass spectrometry for BTK (intact protein, covalent modification)). Conditions: intact BTK, 1 hr, 10× fold excess of compound.
Type: binding
Protocol: Mass Spectrometry for BTK
Intact BTK was incubated for 1 hr at a 10× fold excess of I-7 to protein. Aliquots (2 μl) of the samples were diluted with 10 μl of 0.1% TFA prior to micro C4 ZipTipping directly onto the MALDI target using Sinapinic acid as the desorption matrix (10 mg/ml in 0.1% TFA:Acetonitrile 20:80).

T1 sequence (Q06187 whole entry): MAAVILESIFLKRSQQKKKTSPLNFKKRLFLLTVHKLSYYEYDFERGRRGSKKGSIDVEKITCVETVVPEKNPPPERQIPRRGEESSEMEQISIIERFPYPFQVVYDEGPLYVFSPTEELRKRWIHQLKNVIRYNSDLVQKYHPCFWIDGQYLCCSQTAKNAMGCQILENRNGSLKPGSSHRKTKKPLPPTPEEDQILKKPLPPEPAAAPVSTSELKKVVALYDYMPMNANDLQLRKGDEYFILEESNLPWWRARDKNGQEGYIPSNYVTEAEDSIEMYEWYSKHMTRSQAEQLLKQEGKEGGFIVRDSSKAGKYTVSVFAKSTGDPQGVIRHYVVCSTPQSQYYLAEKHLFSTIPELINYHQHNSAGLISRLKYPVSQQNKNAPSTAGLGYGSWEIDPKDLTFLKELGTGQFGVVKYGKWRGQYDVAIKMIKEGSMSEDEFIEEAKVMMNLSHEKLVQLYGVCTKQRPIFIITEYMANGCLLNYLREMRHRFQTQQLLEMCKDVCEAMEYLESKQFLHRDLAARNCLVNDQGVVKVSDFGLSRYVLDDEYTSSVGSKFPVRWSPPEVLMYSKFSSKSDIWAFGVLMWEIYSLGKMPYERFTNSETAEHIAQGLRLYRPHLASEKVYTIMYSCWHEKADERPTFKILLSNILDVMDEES

covalent modification of BTK by mass spectrometry | Compound
completely modify | C=CC(=O)N1CCC[C@@H](Nc2nc(Nc3cccc(OC)c3)ncc2F)C1 [Compound I-195, (R)-1-(3-(5-fluoro-2-(3-methoxyphenylamino)pyrimidin-4-ylamino)piperidin-1-yl)prop-2-en-1-one]
completely modify | C=CC(=O)Nc1cccc(Nc2nc(Nc3ccc(OCCOC)cc3)ncc2F)c1 [Compound I-182, N-(3-(5-fluoro-2-(4-(2-methoxyethoxy)phenylamino)pyrimidin-4-ylamino)phenyl)acrylamide]
completely modify | C=C(C#N)C(O)c1cccc(Nc2nc(Nc3ccc(OCCOC)cc3)ncc2F)c1 (stereo not shown) [Compound I-71, 2-((3-(5-fluoro-2-(4-(2-methoxyethoxy)phenylamino)pyrimidin-4-ylamino)phenyl)(hydroxy)methyl)acrylonitrile]
completely modify | CC(C)=CC(=O)c1cccc(Nc2nc(Nc3cccc(OCCN(C)C)c3)ncc2F)c1 [Compound I-207]
completely modify | C=CC(=O)N(C)Cc1ccc(Nc2nc(Nc3ccccc3)ncc2C)cc1 [Compound I-219, N-methyl-N-(4-(5-methyl-2-(phenylamino)pyrimidin-4-ylamino)benzyl)acrylamide]
completely modify | C=CC(=O)Nc1cccc(Nc2nc(Nc3cccc(OC(F)(F)F)c3)ncc2F)c1 [Compound I-244, N-(3-(5-fluoro-2-(3-(trifluoromethoxy)phenylamino)pyrimidin-4-ylamino)phenyl)acrylamide]
completely modify | C=CC(=O)N1CCOc2ccc(Nc3ncc(F)c(Nc4cccc(Cl)c4)n3)cc21 [Compound I-149, 1-(6-(4-(3-chlorophenylamino)-5-fluoropyrimidin-2-ylamino)-2H-benzo[b][1,4]oxazin-4(3H)-yl)prop-2-en-1-one]
completely modify | C=CC(=O)Nc1cccc(Nc2nc(Nc3ccc(OCCOC)c(F)c3)ncc2F)c1 [Compound I-96, N-(3-(2-(3-fluoro-4-(2-methoxyethoxy)phenylamino)-5-fluoropyrimidin-4-ylamino)phenyl)acrylamide]
completely modify | C=C(C#N)C(O)c1ccc(Nc2nc(Nc3ccccc3)ncc2F)cc1 (stereo not shown) [Compound I-161, 2-((4-(5-fluoro-2-(phenylamino)pyrimidin-4-ylamino)phenyl)(hydroxy)methyl)acrylonitrile]

Compound | covalent modification of BTK by mass spectrometry
2-((4-(5-fluoro-2-(3-trifluoromethoxyphenylamino)pyrimidin-4-ylamino)phenyl)(hydroxy)methyl)acrylonitrile [Compound I-163] | completely modify

Each compound was assayed against T1, BTK (assay: Washout experiment with Ramos cells (PLCγ2 phosphorylation)). Conditions: Ramos washout assay, 100 nM compound for 1 hour.
Type: cell-based
Protocol: Washout Experiment with Ramos Cells
Ramos cells were serum starved for one hour in RPMI media +1% glutamine at 37° C. After starvation, Ramos cells were treated with 100 nM compound diluted in serum free RPMI media for 1 hour. After compound treatment, the media was removed and cells were washed with compound-free media. Subsequently, Ramos cells were washed every 2 hours and resuspended in fresh compound-free media. Cells were collected at specified timepoints, treated with 1 ug anti-human IgM (Southern Biotech cat #2022-01) for 10 minutes on ice to induce BCR signaling and then washed in PBS. Ramos cells were then lysed in Cell Extraction Buffer (Invitrogen FNN0011) supplemented with Roche complete protease inhibitor tablets (Roche 11697498001) and phosphatase inhibitors (Roche 04 906 837 001) and 18 ug total protein lysate was loaded in each lane. Inhibition of BTK kinase activity was assayed by measuring its substrate (PLCγ2) phosphorylation by western blot with phospho-specific antibodies from Cell Signaling Technologies cat#3871. The results of this experiment with compounds I-2, I-4 and I-7 are depicted in FIGS. 1, 2 and 3.

Compound | BTK Inhibition Type
C#CCOc1cccc(Nc2ncc(C)c(Nc3cccc(NC(=O)C=C)c3)n2)c1 [Compound I-35, N-(3-(5-methyl-2-(3-(prop-2-ynyloxy)phenylamino)pyrimidin-4-ylamino)phenyl) acrylamide] | irreversible
C=CC(=O)Nc1cccc(Nc2ncc(C)c(Nc3cccc(C)c3)n2)c1 [Compound I-2, N-(3-(5-methyl-4-(m-tolylamino)pyrimidin-2-ylamino)phenyl) acrylamide] | irreversible
Cc1cnc(Nc2ccccc2)nc1Nc1cccc(NC(=O)/C=C/CN(C)C)c1 [Compound I-38, (E)-4-(dimethylamino)-N-(3-(5-methyl-2-(phenylamino)pyrimidin-4-ylamino)phenyl)but-2-enamide] | reversible
C=CC(=O)Nc1cccc(Nc2nc(Nc3ccccc3)ncc2F)c1 [Compound I-28, N-(3-(5-fluoro-2-(phenylamino)pyrimidin-4-ylamino)phenyl)acrylamide] | irreversible

Other lines, results leading:

BTK Inhibition Type | Compound
irreversible | C=CC(=O)Nc1cccc(Oc2nc(Nc3ccccc3)ncc2C)c1 [Compound I-248, N-(3-(5-methyl-2-(phenylamino)pyrimidin-4-yloxy)phenyl)acrylamide]
irreversible | C=CC(=O)Nc1cccc(Oc2nc(Nc3ccccc3)ncc2F)c1 [Compound I-228, N-(3-(5-fluoro-2-(phenylamino)pyrimidin-4-yloxy)phenyl)acrylamide]
irreversible | C=CC(=O)Nc1cccc(Nc2nc(Nc3cccc(OC)c3)ncc2C(F)(F)F)c1 [Compound I-242, N-(3-(5-trifluoromethyl-2-(3-methoxyphenylamino)pyrimidin-4-ylamino)phenyl)acrylamide]
irreversible | C=CC(=O)Nc1cccc(Nc2nc(Nc3ccc(OC)nc3)ncc2F)c1 [Compound I-243, N-(3-(5-fluoro-2-(6-methoxypyridin-3-ylamino)pyrimidin-4-ylamino)phenyl)acrylamide]
irreversible | C=CC(=O)Nc1cccc(Nc2nc(Nc3ccc(F)cc3)ncc2F)c1 [Compound I-247, N-(3-(5-fluoro-2-(4-fluorophenylamino)pyrimidin-4-ylamino)phenyl)acrylamide]
irreversible | C=CC(=O)Nc1cccc(Nc2nc(Nc3ccccc3)ncc2C(N)=O)c1 [Compound I-230, 4-(3-acrylamidophenylamino)-2-(phenylamino)pyrimidine-5-carboxamide]

The compounds below were run against T1, BTK (assay: BTK occupancy from in vitro samples by ELISA (Ramos cells, probe I-215)). Conditions: probe I-215 ELISA.
Type: cell-based
Text: Measuring BTK occupancy from in vitro samples by ELISA
In order to determine the amount of free BTK in cell or tissue lysates, an ELISA protocol was employed that utilizes a biotinylated probe compound that binds only to free, unoccupied BTK. The conjugated biotin is captured on a streptavidin-coated ELISA plate and detected with a mouse anti-BTK antibody (Becton Dickinson, Franklin Lakes, N.J., USA) and a secondary goat anti-mouse HRP antibody (Zymed, South San Francisco, Calif., USA).
All samples were prepared with equal concentrations of Biorad lysis buffer (Hercules, Calif., USA), 0.5% bovine serum albumin in PBS with 0.05% Tween-20 to give a final concentration of 1 μM I-215. Samples were incubated in a mixing plate for 1 hr at room temperature while shaking to allow probe compound I-215 to bind to free BTK. After incubation with I-215, samples were added to a washed, streptavidin-coated ELISA plate (Pierce, Rockford, Ill., USA) and incubated for 1 hr at room temperature while shaking. The plate was then washed with PBS containing 0.05% Tween-20 using an automatic plate washer. Anti-BTK antibody was prepared at 1:1000 dilution in 0.5% BSA in PBS (0.05% Tween-20) and added to the ELISA plate. The plate was incubated for 1 hr at room temperature while shaking. The plate was washed as described above and the secondary HRP antibody was prepared at 1:5000 dilution in 0.5% BSA in PBS (0.05% Tween-20). The plate was incubated and washed as described above. TMB was added to the plate, and OD650 was monitored until reaching 1 OD unit. The reaction was then stopped with addition of H2SO4. The plate was analyzed using Gen 5 software, and a 4 Parameter Logistic curve was employed to quantitate samples. Recombinant BTK (Invitrogen, Carlsbad, Calif., USA) was used for the standard curve.
A concentration designated as “A” is greater than 1 nM; a concentration designated as “B” is greater than 10 nM; and a concentration designated as “C” is greater than 50 nM.

concentration at which >50% of BTK is occupied | concentration at which >90% of BTK is occupied | Compound
A (greater than 1 nM) | C (greater than 50 nM) | C=CC(=O)Nc1cccc(Nc2nc(Nc3ccc(OCCOC)cc3)ncc2F)c1 [Compound I-182, N-(3-(5-fluoro-2-(4-(2-methoxyethoxy)phenylamino)pyrimidin-4-ylamino)phenyl)acrylamide]
A (greater than 1 nM) | B (greater than 10 nM) | C=CC(=O)Nc1cccc(Nc2nc(Nc3ccc(OCCOC)c(F)c3)ncc2F)c1 [Compound I-96, N-(3-(2-(3-fluoro-4-(2-methoxyethoxy)phenylamino)-5-fluoropyrimidin-4-ylamino)phenyl)acrylamide]
